Measured values from US6603046B1, “Bis-aromatic a,β-unsaturated ketones” (Lica Pharmaceuticals A/S, priority 1992, dated 2003).

The molecules below were run on human lymphocytes (assay: Lymphocyte Proliferation Assay, 3H-thymidine incorporation (Example 13)). Settings: not given.

Compound | toxicity against human lymphocytes
O=C(/C=C/c1ccccc1)c1ccccc1 [chalcone, reference compound] | extremely high toxicity

Same assay, conditions: Homo sapiens, Lymphocyte, read-out: inhibition of lymphocytes (lower figure)

Compound | inhibition at 0.5 µg/mL | inhibition at 1 µg/mL | inhibition at 5 µg/mL | inhibition at 10 µg/mL
COCOc1ccc(C(=O)/C=C/c2ccc(OC)cc2OC)cc1 [drawing 90] | 0% | 5.1% | 11.2% | 15.4%
COc1ccc(CCC(=O)c2ccc[nH]2)c(OC)c1 | 10% | 2% | 20% | 41.9%
COCCOCOc1ccc(C(=O)/C=C/c2ccc(OCC=C(C)C)cc2OC)cc1 | 0% | 8.1% | 14.1% | 28.3%
C=CCOc1ccc(C(=O)/C=C/c2cc(OC)c(OC)cc2OC)cc1 | 0% | 0% | 0% | 27.6%
COc1ccc(/C=C/C(=O)c2ccc(OC)cc2)cc1 | 0% | 0% | 0% | 0%
COc1cc(OC)c(/C=C/C(=O)c2ccc(O)cc2)c(OC)c1 | 0% | 0% | 48% | 63.6%
C=CCOc1ccc(C(=O)/C=C/c2ccccc2OC)cc1 | 0% | 0% | 1.1% | 80.1%
O=C(/C=C/c1ccc(O)cc1)c1ccc(O)cc1 [drawing 63] | 0% | 0% | 96.3% | 
C=CCOc1ccc(C(=O)/C=C/c2cc(OC)c(OC)c(OC)c2)cc1 | 4% | 4% | 38% | 98%
COc1ccc(/C=C/C(=O)c2ccccc2OCC=C(C)C)c(OC)c1 | 7.1% | 6.6% | 8.7% | 35.9%
COc1ccc(/C=C/C(=O)c2ccc(OCOC(=O)C(C)(C)C)cc2)c(OC)c1 | 7.1% | 8.2% | 9% | 32.7%
O=C(/C=C/c1ccccc1)c1ccccc1 [drawing 60] | 2% | 7.3% | 91% | 100%
O=C(c1ccccc1)C1OC1c1ccccc1 (centres unmarked) | 0% | 0% | 2% | 85.4%
COc1cccc(/C=C/C(=O)c2ccc(O)cc2)c1OC [drawing 69] | 2% | 7.5% | 89.3% | 99.8%
COc1cc(/C=C/C(=O)c2ccc(O)cc2O)ccc1O [drawing 74] | 2% | 6% | 9.5% | 38.3%

Same assay, conditions: Homo sapiens, Lymphocyte, read-out: inhibition of lymphocytes (lower figure), response to PHA; 10 μg/ml

Compound | inhibition at 10 µg/mL
O=C(/C=C/c1ccc(O)cc1)c1ccc(O)cc1 [drawing 63] | 94.8%

Each molecule was assayed on L. major promastigotes (assay: L. major promastigotes from 4-days cultures, 3H-thymidine uptake (Examples 5, 14)). Settings: not given.
Format: cell-based, Leishmania major
Experimental: Parasite cultures. The same parasite culture as described in Example 4. Promastigotes were harvested on day 4 of the culture and used for the parasiticidal assay.
Effect on promastigotes. […] Following incubation, […] of ^3H-thymidine was added to each well and further incubated for 18 hrs. Promastigotes were then harvested on filter paper by means of a cell harvester (Skatron, Lierbyen, Norway), extensively washed with distilled water and counted in a scintillation counter (Minaxi Ti-Carb 4000, United Technologies, Packard, USA).
L. major promastigotes. The L. major promastigotes were prepared as described in Example 4 and harvested after 4 days.

Compound | activity against Leishmania parasites in vitro
O=C(/C=C/c1ccccc1)c1ccccc1 [chalcone, reference compound] | very high activity

Same assay, conditions: Leishmania major, read-out: percentage inhibition of promastigotes (upper figure)

Compound | inhibition at 10 µg/mL
O=C(/C=C/c1ccc(O)cc1)c1ccc(O)cc1 [drawing 63] | 53.1 ± 7.9%

Same assay, conditions: Leishmania major; Table 14.1; 0.5 μg/ml; read-out: percentage inhibition of promastigotes (upper figure)

Compound | inhibition at 0.5 µg/mL
COCOc1ccc(C(=O)/C=C/c2ccc(OC)cc2OC)cc1 [drawing 90] | 22.8 ± 9.7%
COc1ccc(CCC(=O)c2ccc[nH]2)c(OC)c1 | 0.6%
COCCOCOc1ccc(C(=O)/C=C/c2ccc(OCC=C(C)C)cc2OC)cc1 | 11.5%
C=CCOc1ccc(C(=O)/C=C/c2cc(OC)c(OC)cc2OC)cc1 | 24 ± 12%
COc1ccc(/C=C/C(=O)c2ccc(OC)cc2)cc1 | 11.7 ± 9.2%
COc1cc(OC)c(/C=C/C(=O)c2ccc(O)cc2)c(OC)c1 | 25 ± 9.5%
C=CCOc1ccc(C(=O)/C=C/c2ccccc2OC)cc1 | 20.9 ± 7.7%
O=C(/C=C/c1ccc(O)cc1)c1ccc(O)cc1 [drawing 63] | 22.5 ± 10%
C=CCOc1ccc(C(=O)/C=C/c2cc(OC)c(OC)c(OC)c2)cc1 | 11 to 45%
COc1ccc(/C=C/C(=O)c2ccccc2OCC=C(C)C)c(OC)c1 | 4.3%
COc1ccc(/C=C/C(=O)c2ccc(OCOC(=O)C(C)(C)C)cc2)c(OC)c1 | 3.9%
O=C(/C=C/c1ccccc1)c1ccccc1 [drawing 60] | 21.6%
O=C(c1ccccc1)C1OC1c1ccccc1 (centres unmarked) | 28.4 ± 13%
COc1cccc(/C=C/C(=O)c2ccc(O)cc2)c1OC [drawing 69] | 32%
COc1cc(/C=C/C(=O)c2ccc(O)cc2O)ccc1O [drawing 74] | 7.8%

Same assay, conditions: Leishmania major; Table 14.1; 1 μg/ml; read-out: percentage inhibition of promastigotes (upper figure)

Compound | inhibition at 1 µg/mL
COCOc1ccc(C(=O)/C=C/c2ccc(OC)cc2OC)cc1 [drawing 90] | 27.6 ± 10.9%
COc1ccc(CCC(=O)c2ccc[nH]2)c(OC)c1 | 9.4%
COCCOCOc1ccc(C(=O)/C=C/c2ccc(OCC=C(C)C)cc2OC)cc1 | 14%
C=CCOc1ccc(C(=O)/C=C/c2cc(OC)c(OC)cc2OC)cc1 | 23.8 ± 12.5%
COc1ccc(/C=C/C(=O)c2ccc(OC)cc2)cc1 | 8.3 ± 4.6%
COc1cc(OC)c(/C=C/C(=O)c2ccc(O)cc2)c(OC)c1 | 25.6 ± 10.9%
C=CCOc1ccc(C(=O)/C=C/c2ccccc2OC)cc1 | 25.8 ± 15.3%
O=C(/C=C/c1ccc(O)cc1)c1ccc(O)cc1 [drawing 63] | 26.6 ± 7.6%
C=CCOc1ccc(C(=O)/C=C/c2cc(OC)c(OC)c(OC)c2)cc1 | 16 to 47%
COc1ccc(/C=C/C(=O)c2ccccc2OCC=C(C)C)c(OC)c1 | 1.8%
COc1ccc(/C=C/C(=O)c2ccc(OCOC(=O)C(C)(C)C)cc2)c(OC)c1 | 0%
O=C(/C=C/c1ccccc1)c1ccccc1 [drawing 60] | 34.8%
O=C(c1ccccc1)C1OC1c1ccccc1 (centres unmarked) | 33.4 ± 15.4%
COc1cccc(/C=C/C(=O)c2ccc(O)cc2)c1OC [drawing 69] | 43%
COc1cc(/C=C/C(=O)c2ccc(O)cc2O)ccc1O [drawing 74] | 14.3%

Same assay, conditions: Leishmania major; Table 14.1; 5 μg/ml; read-out: percentage inhibition of promastigotes (upper figure)

Compound | inhibition at 5 µg/mL
COCOc1ccc(C(=O)/C=C/c2ccc(OC)cc2OC)cc1 [drawing 90] | 50.2 ± 13%
COc1ccc(CCC(=O)c2ccc[nH]2)c(OC)c1 | 18.5%
COCCOCOc1ccc(C(=O)/C=C/c2ccc(OCC=C(C)C)cc2OC)cc1 | 33.1%
C=CCOc1ccc(C(=O)/C=C/c2cc(OC)c(OC)cc2OC)cc1 | 23.2 ± 12.8%
COc1ccc(/C=C/C(=O)c2ccc(OC)cc2)cc1 | 35.6 ± 23.4%
COc1cc(OC)c(/C=C/C(=O)c2ccc(O)cc2)c(OC)c1 | 23.6 ± 10.9%
C=CCOc1ccc(C(=O)/C=C/c2ccccc2OC)cc1 | 52.8 ± 19.1%
O=C(/C=C/c1ccc(O)cc1)c1ccc(O)cc1 [drawing 63] | 34.6 ± 10.5%
C=CCOc1ccc(C(=O)/C=C/c2cc(OC)c(OC)c(OC)c2)cc1 | 44 to 60%
COc1ccc(/C=C/C(=O)c2ccccc2OCC=C(C)C)c(OC)c1 | 49%
COc1ccc(/C=C/C(=O)c2ccc(OCOC(=O)C(C)(C)C)cc2)c(OC)c1 | 7.9%
O=C(/C=C/c1ccccc1)c1ccccc1 [drawing 60] | 91.9%
O=C(c1ccccc1)C1OC1c1ccccc1 (centres unmarked) | 73.2 ± 17.8%
COc1cccc(/C=C/C(=O)c2ccc(O)cc2)c1OC [drawing 69] | 95.2 ± 4.7%
COc1cc(/C=C/C(=O)c2ccc(O)cc2O)ccc1O [drawing 74] | 56.7%

Same assay, conditions: Leishmania major; Table 14.1; 10 μg/ml; read-out: percentage inhibition of promastigotes (upper figure)

Compound | inhibition at 10 µg/mL
COCOc1ccc(C(=O)/C=C/c2ccc(OC)cc2OC)cc1 [drawing 90] | 65.4 ± 16.1%
COc1ccc(CCC(=O)c2ccc[nH]2)c(OC)c1 | 40.6%
COCCOCOc1ccc(C(=O)/C=C/c2ccc(OCC=C(C)C)cc2OC)cc1 | 61.5%
C=CCOc1ccc(C(=O)/C=C/c2cc(OC)c(OC)cc2OC)cc1 | 28.8 ± 16%
COc1ccc(/C=C/C(=O)c2ccc(OC)cc2)cc1 | 51.8 ± 15.8%
COc1cc(OC)c(/C=C/C(=O)c2ccc(O)cc2)c(OC)c1 | 25.1 ± 17.3%
C=CCOc1ccc(C(=O)/C=C/c2ccccc2OC)cc1 | 76.6 ± 22.4%
C=CCOc1ccc(C(=O)/C=C/c2cc(OC)c(OC)c(OC)c2)cc1 | 86 to 91%
COc1ccc(/C=C/C(=O)c2ccccc2OCC=C(C)C)c(OC)c1 | 83.2%
COc1ccc(/C=C/C(=O)c2ccc(OCOC(=O)C(C)(C)C)cc2)c(OC)c1 | 28.6%
O=C(/C=C/c1ccccc1)c1ccccc1 [drawing 60] | 97.3%
O=C(c1ccccc1)C1OC1c1ccccc1 (centres unmarked) | 88 ± 7.5%
COc1cccc(/C=C/C(=O)c2ccc(O)cc2)c1OC [drawing 69] | 97.1 ± 3.5%
COc1cc(/C=C/C(=O)c2ccc(O)cc2O)ccc1O [drawing 74] | 83.3%
